Experimental data reported in patent US20080009418A1, “Selective Inhibitors” (Alchemia LTD., priority 2004, published 2008).

Experiments:
Details in all cases: compound at 10 μM
Human melanocortin (MC5) = molecular target: T1, Human melanocortin (MC5) (Homo sapiens, UniProt P33032); test: Radioligand binding, human melanocortin MC5 membranes, FlashPlate, [125I]-NDP-αMSH
T1 construct: purchased Perkin Elmer Biosignal
Procedure, shortened: (§1)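 Cloned human receptor membranes were coated onto FlashPlate wells and incubated with radioligand and compound (added from a 0.5 mM DMSO daughter plate) for 1 hour at room temperature in the dark. Scintillation counting gave percent inhibition, with DMSO defining total and reference ligand defining non-specific binding.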

Human Melanocortin (MC4) = molecular target: T2, Human Melanocortin (MC4) (Homo sapiens, UniProt P32245); test: Radioligand binding, human melanocortin MC4 membranes, FlashPlate, [125I]-NDP-αMSH
T2 construct: purchased Perkin Elmer Biosignal
T2 sequence (P32245 whole entry): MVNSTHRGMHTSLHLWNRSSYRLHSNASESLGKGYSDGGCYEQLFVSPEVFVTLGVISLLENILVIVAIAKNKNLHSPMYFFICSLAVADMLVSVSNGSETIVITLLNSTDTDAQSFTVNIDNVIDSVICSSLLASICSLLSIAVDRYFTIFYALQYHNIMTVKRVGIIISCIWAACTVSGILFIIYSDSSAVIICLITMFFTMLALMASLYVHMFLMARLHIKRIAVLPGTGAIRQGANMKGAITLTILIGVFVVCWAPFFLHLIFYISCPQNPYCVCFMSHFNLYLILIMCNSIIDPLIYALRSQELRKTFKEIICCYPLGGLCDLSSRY
Procedure, shortened: as §1

Human δ-opioid (DOP) = molecular target: T3, Human δ-opioid (DOP) (Homo sapiens, UniProt P41143); test: Radioligand binding, human δ-opioid (DOP) membranes, FlashPlate, [3H]-Bremazocine
T3 construct: purchased Perkin Elmer Biosignal
T3 sequence (P41143 whole entry): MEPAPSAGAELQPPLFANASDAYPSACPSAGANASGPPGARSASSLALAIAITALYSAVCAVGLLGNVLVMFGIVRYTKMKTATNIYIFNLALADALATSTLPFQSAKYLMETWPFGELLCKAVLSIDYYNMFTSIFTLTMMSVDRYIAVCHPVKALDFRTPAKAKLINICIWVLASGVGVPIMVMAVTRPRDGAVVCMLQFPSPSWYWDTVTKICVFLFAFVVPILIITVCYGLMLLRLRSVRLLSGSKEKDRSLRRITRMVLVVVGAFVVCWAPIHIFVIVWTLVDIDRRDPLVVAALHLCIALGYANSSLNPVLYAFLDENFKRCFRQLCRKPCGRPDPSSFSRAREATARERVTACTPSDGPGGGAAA
Procedure, shortened: as §1

Human κ-Opioid (KOP) = molecular target: T4, Human κ-Opioid (KOP) (Homo sapiens, UniProt P41145); test: Radioligand binding, human κ-opioid (KOP) membranes, filtration, [3H]-Diprenorphine
T4 construct: purchased Perkin Elmer Biosignal
T4 sequence (P41145 whole entry): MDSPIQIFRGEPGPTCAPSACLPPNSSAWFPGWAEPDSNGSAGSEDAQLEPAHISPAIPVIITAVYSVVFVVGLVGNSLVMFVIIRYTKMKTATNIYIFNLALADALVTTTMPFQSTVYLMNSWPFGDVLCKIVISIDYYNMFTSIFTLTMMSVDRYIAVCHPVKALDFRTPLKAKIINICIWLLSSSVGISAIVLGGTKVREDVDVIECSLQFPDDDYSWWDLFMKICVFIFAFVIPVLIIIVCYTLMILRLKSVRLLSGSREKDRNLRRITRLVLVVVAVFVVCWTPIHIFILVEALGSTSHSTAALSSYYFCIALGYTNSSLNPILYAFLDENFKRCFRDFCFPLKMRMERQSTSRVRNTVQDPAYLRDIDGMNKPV
Procedure, shortened: (§2)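 Filtration binding on cloned human receptor membranes (1 Unit/well), [125I]-Substance P for NK1 and [3H]-Diprenorphine for KOP, 1 h at room temperature. Filters PEI-presoaked, washed with cold 50 mM Tris-HCl pH 7.4, counted by scintillation; percent inhibition calculated, reference ligand defining non-specific binding.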

Human μ-opioid (MOP) = molecular target: T5, Human μ-opioid (MOP) (Homo sapiens, UniProt P35372); test: Radioligand binding, human μ-opioid (MOP) membranes, FlashPlate, [3H]-Naloxone
T5 construct: purchased Perkin Elmer Biosignal
T5 sequence (P35372 whole entry): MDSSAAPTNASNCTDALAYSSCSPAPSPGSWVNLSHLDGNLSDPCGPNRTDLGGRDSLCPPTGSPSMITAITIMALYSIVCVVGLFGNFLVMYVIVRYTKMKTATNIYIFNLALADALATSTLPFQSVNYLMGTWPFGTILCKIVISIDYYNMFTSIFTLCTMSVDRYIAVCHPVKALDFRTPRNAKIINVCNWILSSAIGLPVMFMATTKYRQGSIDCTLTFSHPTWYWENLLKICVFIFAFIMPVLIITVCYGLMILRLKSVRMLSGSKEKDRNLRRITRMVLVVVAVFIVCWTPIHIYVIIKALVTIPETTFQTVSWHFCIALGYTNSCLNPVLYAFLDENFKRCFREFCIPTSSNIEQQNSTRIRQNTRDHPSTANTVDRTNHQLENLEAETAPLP
Procedure, shortened: as §1

Human Melanocortin (MC3) = molecular target: T6, Human Melanocortin (MC3) (Homo sapiens, UniProt P41968); test: Radioligand binding, human melanocortin MC3 membranes, FlashPlate, [125I]-NDP-αMSH
T6 construct: purchased Perkin Elmer Biosignal
T6 sequence (P41968 whole entry): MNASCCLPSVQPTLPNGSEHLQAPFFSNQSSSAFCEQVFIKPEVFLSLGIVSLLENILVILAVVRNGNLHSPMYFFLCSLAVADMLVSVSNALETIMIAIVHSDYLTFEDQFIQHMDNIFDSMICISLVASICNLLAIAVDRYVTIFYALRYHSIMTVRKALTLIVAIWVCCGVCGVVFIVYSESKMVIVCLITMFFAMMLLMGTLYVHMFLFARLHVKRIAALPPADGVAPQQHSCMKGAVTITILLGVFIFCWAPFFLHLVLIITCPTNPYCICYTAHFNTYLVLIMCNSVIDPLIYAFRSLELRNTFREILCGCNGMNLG
Procedure, shortened: as §1

Human opioid (ORL1) = molecular target: T7, Human opioid (ORL1) (Homo sapiens, UniProt P41146); test: Radioligand binding, human opioid ORL1 membranes, FlashPlate, [125I]-Nociceptin
T7 construct: purchased Perkin Elmer Biosignal
T7 sequence (P41146 whole entry): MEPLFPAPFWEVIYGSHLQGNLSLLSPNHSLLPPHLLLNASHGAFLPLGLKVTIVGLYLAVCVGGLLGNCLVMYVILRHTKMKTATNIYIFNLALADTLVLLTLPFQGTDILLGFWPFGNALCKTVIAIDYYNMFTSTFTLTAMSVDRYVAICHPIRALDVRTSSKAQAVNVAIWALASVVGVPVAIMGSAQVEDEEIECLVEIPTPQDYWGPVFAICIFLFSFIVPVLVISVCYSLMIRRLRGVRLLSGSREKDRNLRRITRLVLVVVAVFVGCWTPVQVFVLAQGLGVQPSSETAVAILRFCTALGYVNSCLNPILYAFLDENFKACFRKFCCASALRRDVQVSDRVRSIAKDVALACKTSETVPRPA
Procedure, shortened: as §1

Human neurokinin (NK1) = molecular target: T8, Human neurokinin (NK1) (Homo sapiens, UniProt P25103); test: Radioligand binding, human neurokinin NK1 membranes, filtration, [125I]-Substance P
T8 construct: purchased Perkin Elmer Biosignal
T8 sequence (P25103 whole entry): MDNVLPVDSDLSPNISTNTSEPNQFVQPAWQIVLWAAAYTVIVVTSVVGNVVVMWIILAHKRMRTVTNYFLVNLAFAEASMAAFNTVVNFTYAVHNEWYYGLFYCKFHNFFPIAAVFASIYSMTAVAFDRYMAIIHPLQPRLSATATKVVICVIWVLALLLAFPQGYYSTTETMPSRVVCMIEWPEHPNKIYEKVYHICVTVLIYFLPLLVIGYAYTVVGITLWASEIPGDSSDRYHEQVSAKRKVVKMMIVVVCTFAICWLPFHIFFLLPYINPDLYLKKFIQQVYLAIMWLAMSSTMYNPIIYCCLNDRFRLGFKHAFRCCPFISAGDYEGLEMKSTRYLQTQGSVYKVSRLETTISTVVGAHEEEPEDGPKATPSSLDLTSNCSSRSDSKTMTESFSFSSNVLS
Procedure, shortened: as §2

[1] = molecular target: T9, Human melanin-concentrating hormone (MCH1) (Homo sapiens, UniProt Q99705); test: Radioligand binding, human melanin-concentrating hormone MCH1 membranes, FlashPlate, [125I]-S36057
T9 construct: purchased Perkin Elmer Biosignal
T9 sequence (Q99705 whole entry): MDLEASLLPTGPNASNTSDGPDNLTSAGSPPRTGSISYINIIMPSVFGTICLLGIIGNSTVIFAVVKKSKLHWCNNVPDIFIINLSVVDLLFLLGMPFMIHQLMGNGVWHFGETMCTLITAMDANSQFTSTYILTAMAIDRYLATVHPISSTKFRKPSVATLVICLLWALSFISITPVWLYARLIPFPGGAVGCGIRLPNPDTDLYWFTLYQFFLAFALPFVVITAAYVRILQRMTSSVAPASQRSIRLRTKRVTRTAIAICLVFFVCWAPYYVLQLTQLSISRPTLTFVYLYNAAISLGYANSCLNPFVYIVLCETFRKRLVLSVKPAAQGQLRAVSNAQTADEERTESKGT
Procedure, shortened: as §1

[2] = molecular target: T10, Human neuropeptide Y (NPY-Y1) (Homo sapiens, UniProt P25929); test: Radioligand binding, human neuropeptide Y NPY-Y1 membranes, FlashPlate, [125I]-PYY
T10 construct: purchased Perkin Elmer Biosignal
T10 sequence (P25929 1-384): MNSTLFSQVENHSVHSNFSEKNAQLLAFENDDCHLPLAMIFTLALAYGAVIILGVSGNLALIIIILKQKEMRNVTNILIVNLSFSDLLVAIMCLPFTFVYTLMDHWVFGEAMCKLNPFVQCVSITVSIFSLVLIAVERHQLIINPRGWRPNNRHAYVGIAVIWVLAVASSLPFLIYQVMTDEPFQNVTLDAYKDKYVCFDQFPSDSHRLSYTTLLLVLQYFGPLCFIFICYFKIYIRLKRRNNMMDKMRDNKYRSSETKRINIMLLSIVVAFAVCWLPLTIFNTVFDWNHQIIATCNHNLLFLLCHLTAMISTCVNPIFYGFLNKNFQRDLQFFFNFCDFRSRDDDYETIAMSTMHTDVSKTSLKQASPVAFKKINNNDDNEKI
Procedure, shortened: as §1

Mouse urotensin (mUR2) = molecular target: T11, Mouse urotensin (mUR2) (Mus musculus, UniProt Q8VIH9); test: Radioligand binding, mouse urotensin mUR2 membranes, FlashPlate, [125I]-Urotensin II
T11 construct: purchased Perkin Elmer Biosignal
T11 sequence (Q8VIH9 1-385): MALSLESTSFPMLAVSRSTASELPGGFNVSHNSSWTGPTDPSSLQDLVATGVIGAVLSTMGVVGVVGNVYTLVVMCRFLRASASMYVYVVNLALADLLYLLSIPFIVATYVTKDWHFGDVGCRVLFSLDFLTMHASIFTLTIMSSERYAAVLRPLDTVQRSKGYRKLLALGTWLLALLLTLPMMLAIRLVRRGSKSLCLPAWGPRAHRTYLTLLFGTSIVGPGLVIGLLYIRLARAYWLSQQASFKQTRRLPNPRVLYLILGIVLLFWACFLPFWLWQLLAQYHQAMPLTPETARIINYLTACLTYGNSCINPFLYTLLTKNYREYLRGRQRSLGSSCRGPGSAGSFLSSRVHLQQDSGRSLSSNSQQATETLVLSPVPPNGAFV
Procedure, shortened: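 Cloned mouse urotensin (mUR2) receptor membranes from Perkin Elmer Biosignal were immobilized in FlashPlate microplates using a proprietary coating. Each well got 19.5 μl buffer, then 0.5 μl of DMSO, reference ligand, or compound. Adding 5 μl of [125I]-Urotensin II, diluted to 5× final concentration in binding buffer, started binding. Plates were sealed with TopSeal-A and incubated 1 hour at room temperature in the dark. Wells were counted for 30 seconds each on a TopCount after a 60-second delay, and percentage inhibition was calculated.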

T1 sequence (P33032 whole entry): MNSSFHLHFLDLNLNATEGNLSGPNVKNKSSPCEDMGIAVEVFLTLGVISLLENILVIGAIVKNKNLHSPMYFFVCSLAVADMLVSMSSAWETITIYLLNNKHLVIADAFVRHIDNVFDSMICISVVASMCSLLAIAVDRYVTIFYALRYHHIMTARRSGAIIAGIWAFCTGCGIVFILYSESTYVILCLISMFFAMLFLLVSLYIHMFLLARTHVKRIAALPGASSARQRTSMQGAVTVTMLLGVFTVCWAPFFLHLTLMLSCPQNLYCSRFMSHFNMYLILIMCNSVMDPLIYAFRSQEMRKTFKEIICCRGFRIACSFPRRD

Question: `COCC1OC(OCc2ccc(Cl)cc2)C(NC(=O)CCCNC(=N)N)C(OCc2ccccc2)C1O` (stereo not drawn) [compound 198] was tested. Which “A5: inhibition of radioligand binding” value (Human melanocortin (MC5); [125I]-NDP-αMSH, FlashPlate) did it give?
Answer: The value was “+ (“+” indicates greater than 50% inhibition at 10 μM)”.

Question: What about the “A4: inhibition of radioligand binding” value (Human Melanocortin (MC4); [125I]-NDP-αMSH, FlashPlate) of the same molecule?
Answer: The value was “− (“−” indicates less than 50% inhibition at 10 μM)”.

Question: And the “A1: inhibition of radioligand binding” value (Human δ-opioid (DOP); [3H]-Bremazocine, FlashPlate)?
Answer: Its value is “− (“−” indicates less than 50% inhibition at 10 μM)”.

Question: And the “A2: inhibition of radioligand binding” value (Human κ-Opioid (KOP); [3H]-Diprenorphine, filtration)?
Answer: Its value is “− (“−” indicates less than 50% inhibition at 10 μM)”.

Question: And the “A7: inhibition of radioligand binding” value (Human μ-opioid (MOP); [3H]-Naloxone, FlashPlate)?
Answer: Its value is “− (“−” indicates less than 50% inhibition at 10 μM)”.

Question: And the “A3: inhibition of radioligand binding” value (Human Melanocortin (MC3); [125I]-NDP-αMSH, FlashPlate)?
Answer: Its value is “− (“−” indicates less than 50% inhibition at 10 μM)”.

Question: What about the “A10: inhibition of radioligand binding” value (Human opioid (ORL1); [125I]-Nociceptin, FlashPlate) of the same molecule?
Answer: The value was “− (“−” indicates less than 50% inhibition at 10 μM)”.

Question: What about the “A8: inhibition of radioligand binding” value (Human neurokinin (NK1); [125I]-Substance P, filtration) of the same molecule?
Answer: The value was “+ (“+” indicates greater than 50% inhibition at 10 μM)”.

Question: What about the “A6: inhibition of radioligand binding” value ([1]; [125I]-S36057, FlashPlate) of the same molecule?
Answer: The value was “− (“−” indicates less than 50% inhibition at 10 μM)”.

Question: What about the “A9: inhibition of radioligand binding” value ([2]; [125I]-PYY, FlashPlate) of the same molecule?
Answer: Its value is “− (“−” indicates less than 50% inhibition at 10 μM)”.

Question: What about the “A11: inhibition of radioligand binding” value (Mouse urotensin (mUR2); [125I]-Urotensin II, FlashPlate) of the same molecule?
Answer: The value was “− (“−” indicates less than 50% inhibition at 10 μM)”.

Question: How did the “A5 radioligand binding inhibition” value (Human melanocortin (MC5); human melanocortin MC5 membranes) turn out when `COC[C@H]1OC(OCc2ccc(-c3ccccc3)cc2)[C@H](NC(=O)CNC(=N)N)[C@@H](OCc2ccc3ccccc3c2)[C@@H]1O` (stereo partly drawn) [compound 3] was run?
Answer: Its value is “+ (“+” indicates greater than 50% inhibition at 10 μM)”.

Question: What about the “A4 radioligand binding inhibition” value (Human Melanocortin (MC4); human melanocortin MC4 membranes) of the same molecule?
Answer: Its value is “− (“−” indicates less than 50% inhibition at 10 μM)”.

Question: What about the “A1 radioligand binding inhibition” value (Human δ-opioid (DOP); human δ-opioid (DOP) membranes) of the same molecule?
Answer: The value was “− (“−” indicates less than 50% inhibition at 10 μM)”.

Question: What about the “A2 radioligand binding inhibition” value (Human κ-Opioid (KOP); human κ-opioid (KOP) membranes) of the same molecule?
Answer: Its value is “− (“−” indicates less than 50% inhibition at 10 μM)”.

Question: And the “A7 radioligand binding inhibition” value (Human μ-opioid (MOP); human μ-opioid (MOP) membranes)?
Answer: Its value is “− (“−” indicates less than 50% inhibition at 10 μM)”.

Question: And the “A3 radioligand binding inhibition” value (Human Melanocortin (MC3); human melanocortin MC3 membranes)?
Answer: Its value is “− (“−” indicates less than 50% inhibition at 10 μM)”.

Question: What about the “A10 radioligand binding inhibition” value (Human opioid (ORL1); human ORL1 membranes) of the same molecule?
Answer: The value was “− (“−” indicates less than 50% inhibition at 10 μM)”.

Question: What about the “A8 radioligand binding inhibition” value (Human neurokinin (NK1); human neurokinin NK1 membranes) of the same molecule?
Answer: Its value is “+ (“+” indicates greater than 50% inhibition at 10 μM)”.

Question: And the “A6 radioligand binding inhibition” value ([1]; human MCH1 membranes)?
Answer: Its value is “+ (“+” indicates greater than 50% inhibition at 10 μM)”.

Question: What about the “A9 radioligand binding inhibition” value ([2]; human NPY-Y1 membranes) of the same molecule?
Answer: The value was “− (“−” indicates less than 50% inhibition at 10 μM)”.

Question: What about the “A11 radioligand binding inhibition” value (Mouse urotensin (mUR2); mouse urotensin mUR2 membranes) of the same molecule?
Answer: The value was “− (“−” indicates less than 50% inhibition at 10 μM)”.

Question: With `CSC1OC(COCc2ccc(Cl)cc2)C(O)C(OCc2ccc3ccccc3c2)C1NC(=O)CCCN` (stereo not drawn) [compound 310] as the molecule, how does the “A5: inhibition of radioligand binding, human melanocortin (MC5)” value (Human melanocortin (MC5); [125I]-NDP-αMSH) read?
Answer: The value was “− (“−” indicates less than 50% inhibition at 10 μM)”.

Question: And the “A4: inhibition of radioligand binding, human melanocortin (MC4)” value (Human Melanocortin (MC4); [125I]-NDP-αMSH)?
Answer: The value was “− (“−” indicates less than 50% inhibition at 10 μM)”.

Question: And the “A1: inhibition of radioligand binding, human δ-opioid (DOP)” value (Human δ-opioid (DOP); [3H]-Bremazocine)?
Answer: The value was “− (“−” indicates less than 50% inhibition at 10 μM)”.

Question: And the “A2: inhibition of radioligand binding, human κ-opioid (KOP)” value (Human κ-Opioid (KOP); [3H]-Diprenorphine)?
Answer: The value was “− (“−” indicates less than 50% inhibition at 10 μM)”.

Question: What about the “A7: inhibition of radioligand binding, human μ-opioid (MOP)” value (Human μ-opioid (MOP); [3H]-Naloxone) of the same molecule?
Answer: Its value is “− (“−” indicates less than 50% inhibition at 10 μM)”.

Question: What about the “A3: inhibition of radioligand binding, human melanocortin (MC3)” value (Human Melanocortin (MC3); [125I]-NDP-αMSH) of the same molecule?
Answer: Its value is “− (“−” indicates less than 50% inhibition at 10 μM)”.

Question: What about the “A10: inhibition of radioligand binding, human opioid (ORL1)” value (Human opioid (ORL1); [125I]-Nociceptin) of the same molecule?
Answer: Its value is “− (“−” indicates less than 50% inhibition at 10 μM)”.

Question: And the “A8: inhibition of radioligand binding, human neurokinin (NK1)” value (Human neurokinin (NK1); [125I]-Substance P)?
Answer: Its value is “+ (“+” indicates greater than 50% inhibition at 10 μM)”.

Question: And the “A6: inhibition of radioligand binding, human melanin-concentrating hormone (MCH1)” value ([1]; [125I]-S36057)?
Answer: Its value is “− (“−” indicates less than 50% inhibition at 10 μM)”.

Question: And the “A9: inhibition of radioligand binding, human neuropeptide Y (NPY-Y1)” value ([2]; [125I]-PYY)?
Answer: Its value is “− (“−” indicates less than 50% inhibition at 10 μM)”.

Question: And the “A11: inhibition of radioligand binding, mouse urotensin (mUR2)” value (Mouse urotensin (mUR2); [125I]-Urotensin II)?
Answer: Its value is “− (“−” indicates less than 50% inhibition at 10 μM)”.
